Laboratory results reported in patent publication US10532106B2 (priority 2014, dated 2020).
Like-named read-outs stand apart in the source and are kept apart here. Numbered stars: 1 amine (or outer) side, 2 acyl side, 3 side chain; on linkers, the order of the positions; unused ones are H or OH. Bridge positions count the residues as written; N and C are the ends. Square brackets hold non-standard residues; d marks the D form. Peptide text beside a SMILES is read from it. * marks the point of attachment. DOTA = O=C(O)CN1CCN(CC(=O)O)CCN(CC(=O)*)CCN(CC(=O)O)CC1; Phe(F5) = N[C@@H](Cc1c(F)c(F)c(F)c(F)c1F)C(=O)O; Phe(4-Br) = N[C@@H](Cc1ccc(Br)cc1)C(=O)O; 1Nal = N[C@@H](Cc1cccc2ccccc12)C(=O)O; TBMB = c1c(C[*:1])cc(C[*:3])cc1C[*:2]; Chg = N[C@H](C(=O)O)C1CCCCC1; Tle = CC(C)(C)[C@H](N)C(=O)O; Sar = CNCC(=O)O

Target: T1, MT1-MMP hemopexin domain (Homo sapiens, UniProt P50281)
T1 construct: residues Cys319-Gly511 from the human gene; His6 (N); made in house; host or cells: HEK293 (transient), pEXPR-IBA42 vector
Experiment: Competition assay using fluorescence polarisation
Assay type: binding
Conditions: for Kd: read-out: Kd
From the text: Here, a pre-formed complex of PEX with the fluorescent PEX-binding tracer is titrated with free, non-fluoresceinated bicyclic peptide. Since all 17-69-based peptides are expected to bind at the same site, the titrant will displace the fluorescent tracer from PEX. Dissociation of the complex can be measured quantitatively, and the Kd of the competitor (titrant) to the target protein determined. The advantage of the competition method is that the affinities of non-fluoresceinated bicyclic peptides can be determined accurately and rapidly.
Subsequently, the non-fluorescent competitor bicyclic peptide (usually just the bicycle core sequence) is titrated, such that it displaces the fluorescent tracer from the target protein. The displacement of the tracer is measured and associated with a drop in fluorescence polarisation. The drop in fluorescence polarisation is proportional to the fraction of target protein bound with the non-fluorescent titrant, and thus is a measure of the affinity of titrant to target protein.
The raw data is fit to the analytical solution of the cubic equation that describes the equilibria between fluorescent tracer, titrant, and binding protein. The fit requires the value of the affinity of fluorescent tracer to the target protein, which can be determined separately by direct binding FP experiments (see previous section).

[1] = Table 9, tolerated substitutions at positions 9 and 11
[2] = Table 8, substitutions at position 4

Compound: CC[C@H](C)[C@@H]1NC(=O)[C@H](CC(=O)O)NC(=O)[C@H](Cc2c(F)c(F)c(F)c(F)c2F)NC(=O)[C@H](Cc2ccccc2)NC(=O)[C@H](CC(=O)O)NC(=O)[C@H](CCC(=O)O)NC(=O)[C@@H]2CSCc3cc(cc(c3)CSC[C@H](NC(C)=O)C(=O)N[C@@H](Cc3ccc(O)cc3)C(=O)N[C@@H](CC(N)=O)C(=O)N[C@@H](CCC(=O)O)C(=O)N[C@@H](Cc3ccccc3)C(=O)NCC(=O)N2)CSC[C@@H](C(N)=O)NC1=O [17-69-07-N182, Ac-(17-69-07) 5FPhe9] (Ac-CYNEFGCEDF[Phe(F5)]DIC-NH2; linker 1-7-14 via TBMB)
- Kd [1]: 13.1 nM

Compound: CC[C@H](C)[C@@H]1NC(=O)[C@H](CC(=O)O)NC(=O)[C@H](Cc2ccc(Br)cc2)NC(=O)[C@H](Cc2ccccc2)NC(=O)[C@H](CC(=O)O)NC(=O)[C@H](CCC(=O)O)NC(=O)[C@@H]2CSCc3cc(cc(c3)CSC[C@H](NC(C)=O)C(=O)N[C@@H](Cc3ccc(O)cc3)C(=O)N[C@@H](CC(N)=O)C(=O)N[C@@H](CCC(=O)O)C(=O)N[C@@H](Cc3ccccc3)C(=O)NCC(=O)N2)CSC[C@@H](C(N)=O)NC1=O [17-69-07-N130, Ac-(17-69-07) 4BrPhe9] (Ac-CYNEFGCEDF[Phe(4-Br)]DIC-NH2; linker 1-7-14 via TBMB)
- Kd [1]: 2.45 ± 1.08 nM

Compound: C[C@H](NC(=O)CN1CCN(CC(=O)O)CCN(CC(=O)O)CCN(CC(=O)O)CC1)C(=O)N[C@H]1CSCc2cc3cc(c2)CSC[C@H](NC(=O)[C@@H](C)NC(=O)[C@H](Cc2cccc4ccccc24)NC(=O)[C@H](CCC(=O)O)NC(=O)[C@H](CC(N)=O)NC(=O)[C@@H](C)NC1=O)C(=O)N[C@@H](CCC(=O)O)C(=O)N[C@@H](CC(=O)O)C(=O)N[C@@H](Cc1ccccc1)C(=O)N[C@@H](Cc1ccc(Br)cc1)C(=O)N[C@@H](CC(=O)O)C(=O)N[C@@H](C(C)(C)C)C(=O)N[C@H](C(N)=O)CSC3 [17-69-07-N248, DOTA-A-(17-69-07) D-Ala1 1Nal4 D-Ala5 4BrPhe9 tBuGly11] ({DOTA}-AC[dA]NE[1Nal][dA]CEDF[Phe(4-Br)]D[Tle]C-NH2; linker 2-8-15 via TBMB)
- potency / activity toward MT1-MMP, in words: retained potency
- Kd (Table 15, DOTA-linked peptides): 0.5 nM

Compound: C[C@H](NC(=O)CN(C)C(=O)CN(C)C(=O)CN(C)C(=O)CN(C)C(=O)CN(C)C(=O)CN(C)C(=O)CN(C)C(=O)CN(C)C(=O)CN(C)C(=O)CN(C)C(=O)CN)C(=O)N[C@H]1CSCc2cc3cc(c2)CSC[C@H](NC(=O)[C@@H](C)NC(=O)[C@H](Cc2cccc4ccccc24)NC(=O)[C@H](CCC(=O)O)NC(=O)[C@H](CC(N)=O)NC(=O)[C@@H](C)NC1=O)C(=O)N[C@@H](CCC(=O)O)C(=O)N[C@@H](CC(=O)O)C(=O)N[C@@H](Cc1ccccc1)C(=O)N[C@@H](Cc1ccc(Br)cc1)C(=O)N[C@@H](CC(=O)O)C(=O)N[C@@H](C(C)(C)C)C(=O)N[C@H](C(N)=O)CSC3 [17-69-07-N244, G-Sar10-A-(17-69-07) D-Ala1 1Nal4 D-Ala5 4BrPhe9 tBuGly11] (H-G[Sar][Sar][Sar][Sar][Sar][Sar][Sar][Sar][Sar][Sar]AC[dA]NE[1Nal][dA]CEDF[Phe(4-Br)]D[Tle]C-NH2; linker 13-19-26 via TBMB)
- potency / activity toward MT1-MMP, in words: potency which is superior to wildtype
- Kd (Table 12, molecules selected for plasma stability assessment): 0.45 ± 0.19 nM

Compound: CC(=O)NCC(=O)N(C)CC(=O)N(C)CC(=O)N(C)CC(=O)N(C)CC(=O)N(C)CC(=O)N(C)CC(=O)N(C)CC(=O)N(C)CC(=O)N(C)CC(=O)N(C)CC(=O)N[C@@H](C)C(=O)N[C@H]1CSCc2cc3cc(c2)CSC[C@H](NC(=O)[C@@H](C)NC(=O)[C@H](Cc2cccc4ccccc24)NC(=O)[C@H](CCC(=O)O)NC(=O)[C@H](CC(N)=O)NC(=O)[C@@H](C)NC1=O)C(=O)N[C@@H](CCC(=O)O)C(=O)N[C@@H](CC(=O)O)C(=O)N[C@@H](Cc1ccccc1)C(=O)N[C@@H](Cc1ccc(Br)cc1)C(=O)N[C@@H](CC(=O)O)C(=O)N[C@@H](C(C)(C)C)C(=O)N[C@H](C(N)=O)CSC3 [17-69-07-N255, Ac-G-Sar10-A-(17-69-07) D-Ala1 1Nal4 D-Ala5 4BrPhe9 tBuGly11] (Ac-G[Sar][Sar][Sar][Sar][Sar][Sar][Sar][Sar][Sar][Sar]AC[dA]NE[1Nal][dA]CEDF[Phe(4-Br)]D[Tle]C-NH2; linker 13-19-26 via TBMB)
- potency / activity toward MT1-MMP, in words: potency which is superior to wildtype
- Kd (Table 11, G-Sar10-A addition): 0.3 nM

Compound: CC(=O)NCC(=O)N(C)CC(=O)N(C)CC(=O)N(C)CC(=O)N(C)CC(=O)N(C)CC(=O)N(C)CC(=O)N(C)CC(=O)N(C)CC(=O)N(C)CC(=O)N(C)CC(=O)N[C@@H](C)C(=O)N[C@H]1CSCc2cc3cc(c2)CSC[C@H](NC(=O)[C@@H](C)NC(=O)[C@H](Cc2cccc4ccccc24)NC(=O)[C@H](CCC(=O)O)NC(=O)[C@H](CC(N)=O)NC(=O)[C@@H](C)NC1=O)C(=O)N[C@@H](CCC(=O)O)C(=O)N[C@@H](CC(=O)O)C(=O)N[C@@H](Cc1ccccc1)C(=O)N[C@@H](Cc1ccc(O)cc1)C(=O)N[C@@H](CC(=O)O)C(=O)N[C@@H](C(C)(C)C)C(=O)N[C@H](C(N)=O)CSC3 [17-69-07-N239, Ac-G-Sar10-A-(17-69-07) D-Ala1 1Nal4 D-Ala5 tBuGly11] (Ac-G[Sar][Sar][Sar][Sar][Sar][Sar][Sar][Sar][Sar][Sar]AC[dA]NE[1Nal][dA]CEDFYD[Tle]C-NH2; linker 13-19-26 via TBMB)
- potency / activity toward MT1-MMP, in words: potency which is superior to wildtype
- Kd (Table 11, G-Sar10-A addition): 0.94 ± 0.08 nM

Compound: CC[C@H](C)[C@@H]1NC(=O)[C@H](CC(=O)O)NC(=O)[C@H](Cc2ccc(O)cc2)NC(=O)[C@H](Cc2ccccc2)NC(=O)[C@H](CC(=O)O)NC(=O)[C@H](CCC(=O)O)NC(=O)[C@@H]2CSCc3cc(cc(c3)CSC[C@H](NC(C)=O)C(=O)N[C@@H](Cc3ccc(O)cc3)C(=O)N[C@@H](CC(N)=O)C(=O)N[C@@H](CCC(=O)O)C(=O)N[C@@H](Cc3ccccc3)C(=O)N[C@H](CCCNC(=N)N)C(=O)N2)CSC[C@@H](C(N)=O)NC1=O [17-69-07-N120, Ac-(17-69-07) D-Arg5] (Ac-CYNEF[dR]CEDFYDIC-NH2; linker 1-7-14 via TBMB)
- Kd (Table 7, substitutions at position 5): 4.24 ± 1.48 nM

Compound: CC[C@H](C)[C@@H]1NC(=O)[C@H](CC(=O)O)NC(=O)[C@H](Cc2ccc(O)cc2)NC(=O)[C@H](Cc2ccccc2)NC(=O)[C@H](CC(=O)O)NC(=O)[C@H](CCC(=O)O)NC(=O)[C@@H]2CSCc3cc(cc(c3)CSC[C@@H](C(=O)N[C@@H](C)C(N)=O)NC1=O)CSC[C@H](NC(=O)[C@H](C)N)C(=O)N[C@@H](Cc1ccccc1)C(=O)NCC(=O)N[C@@H](CCC(=O)O)C(=O)N[C@@H](Cc1ccccc1)C(=O)NCC(=O)N2 [17-69-02-N001, A-(17-69-02)-A] (H-ACFGEFGCEDFYDICA-NH2; linker 2-8-15 via TBMB)
- Kd (Table 2, FP method Competition, tracer A-(17-69-07)-A-Sar6-K(Fluorescein)): 191 nM

Compound: CC[C@H](C)[C@@H]1NC(=O)[C@H](CC(=O)O)NC(=O)[C@H](Cc2ccc(O)cc2)NC(=O)[C@H](Cc2ccccc2)NC(=O)[C@H](CC(=O)O)NC(=O)[C@H](CCC(=O)O)NC(=O)[C@@H]2CSCc3cc(cc(c3)CSC[C@H](NC(C)=O)C(=O)N[C@@H](Cc3ccc(O)cc3)C(=O)N[C@@H](CC(N)=O)C(=O)N[C@@H](CCC(=O)O)C(=O)N[C@@H](Cc3ccccc3)C(=O)N3CCC[C@@H]3C(=O)N2)CSC[C@@H](C(N)=O)NC1=O [17-69-07-N059, Ac-(17-69-07) D-Pro5] (Ac-CYNEF[dP]CEDFYDIC-NH2; linker 1-7-14 via TBMB)
- Kd (Table 6, D-Alanine substitutions in first loop): > 5000 nM

Compound: CC[C@H](C)[C@@H]1NC(=O)[C@H](CC(=O)O)NC(=O)[C@H](Cc2ccc(O)cc2)NC(=O)[C@H](Cc2ccccc2)NC(=O)[C@H](CC(=O)O)NC(=O)[C@H](CCC(=O)O)NC(=O)[C@@H]2CSCc3cc(cc(c3)CSC[C@H](NC(C)=O)C(=O)N[C@@H](Cc3ccc(O)cc3)C(=O)N[C@@H](CC(N)=O)C(=O)N[C@@H](CCC(=O)O)C(=O)N[C@@H](Cc3cccc4ccccc34)C(=O)NCC(=O)N2)CSC[C@@H](C(N)=O)NC1=O [17-69-07-N067, Ac-(17-69-07) 1NAl4] (Ac-CYNE[1Nal]GCEDFYDIC-NH2; linker 1-7-14 via TBMB)
- Kd [2]: 0.36 ± 0.12 nM

Compound: CC[C@H](C)[C@@H]1NC(=O)[C@H](CC(=O)O)NC(=O)[C@H](Cc2ccc(O)cc2)NC(=O)[C@H](Cc2ccccc2)NC(=O)[C@H](CC(=O)O)NC(=O)[C@H](CCC(=O)O)NC(=O)[C@@H]2CSCc3cc(cc(c3)CSC[C@H](NC(C)=O)C(=O)N[C@@H](Cc3ccc(O)cc3)C(=O)N[C@@H](CC(N)=O)C(=O)N[C@@H](CCC(=O)O)C(=O)N[C@@H](C3CCCCC3)C(=O)NCC(=O)N2)CSC[C@@H](C(N)=O)NC1=O [17-69-07-N065, Ac-(17-69-07) Chg4] (Ac-CYNE[Chg]GCEDFYDIC-NH2; linker 1-7-14 via TBMB)
- Kd [2]: > 5000 nM

Compound: CC(=O)N[C@H]1CSCc2cc3cc(c2)CSC[C@H](NC(=O)CNC(=O)[C@H](Cc2ccccc2)NC(=O)[C@H](CCC(=O)O)NC(=O)[C@H](CC(N)=O)NC(=O)[C@H](Cc2ccc(O)cc2)NC1=O)C(=O)N[C@@H](CCC(=O)O)C(=O)N[C@@H](CC(=O)O)C(=O)N[C@@H](Cc1ccccc1)C(=O)N[C@@H](Cc1ccc(O)cc1)C(=O)N[C@@H](CC(=O)O)C(=O)N[C@@H](C(C)(C)C)C(=O)N[C@H](C(N)=O)CSC3 [17-69-07-N100, Ac-(17-69-07) tBuGly11] (Ac-CYNEFGCEDFYD[Tle]C-NH2; linker 1-7-14 via TBMB)
- Kd [1]: 1.56 ± 1.14 nM
